Test results as given in patent US9334285B2, “Aldosterone synthase inhibitors” (Boehringer Ingelheim International GmbH, priority 2014, dated 2016).
Read-outs that look alike come from different tables or passages of the source.

How the values were obtained:
CYP19A1 = target: T1, CYP19A1 (Homo sapiens, UniProt P11511); assay: Inhibition of CYP19A1 (Kragie et al.); type: biochemical; conditions: read-out: CYP19A1 IC50
T1 sequence (P11511 1-503): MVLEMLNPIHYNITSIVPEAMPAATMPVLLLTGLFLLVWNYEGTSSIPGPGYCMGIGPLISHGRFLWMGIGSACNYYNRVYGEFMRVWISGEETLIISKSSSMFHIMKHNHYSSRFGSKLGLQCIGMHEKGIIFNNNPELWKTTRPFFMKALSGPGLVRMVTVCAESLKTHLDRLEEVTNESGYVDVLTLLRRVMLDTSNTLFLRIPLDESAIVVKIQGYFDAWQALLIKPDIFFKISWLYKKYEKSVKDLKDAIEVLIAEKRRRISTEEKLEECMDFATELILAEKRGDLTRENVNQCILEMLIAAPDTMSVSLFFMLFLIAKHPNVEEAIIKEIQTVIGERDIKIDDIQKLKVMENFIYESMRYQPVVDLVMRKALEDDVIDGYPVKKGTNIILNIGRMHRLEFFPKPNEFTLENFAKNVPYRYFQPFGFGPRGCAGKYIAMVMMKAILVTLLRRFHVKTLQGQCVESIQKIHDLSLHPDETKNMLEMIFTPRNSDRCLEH

[1] = target: cortisol synthase (CYP11B1) (Macaca fascicularis, UniProt A0A2K5ULY1); assay: Inhibition of cortisol synthesis, cynomolgus adrenal mitochondria, 11-deoxycortisol as substrate; type: biochemical, cynomolgus monkey; conditions: 150 units of CYP11B1, 11-deoxycortisol as substrate
Protocol: The aldosterone synthase and cortisol synthase inhibition assays employ cynomolgus adrenal gland mitochondria as the source of aldosterone synthase (CYP11B2) and cortisol synthase (CYP11B1). Mitochondria are prepared from frozen cynomolgus monkey adrenal glands according to Method A described in by J. D. McGarry et al. (Biochem. J., 1983, 214, 21-28), with a final resuspension in the AT buffer described in R. Yamaguchi et al. (Cell Death and Differentiation, 2007, 14, 616-624), frozen as aliquots in liquid nitrogen and stored at −80° C. until use. One unit of CYP11B2 and CYP11B1 activity in these preparations is defined as the amount of enzyme that generates 1 pmol of product in one hour under the conditions described.
Assays are performed as for aldosterone synthase except for the use of 150 units of CYP11B1, 11-deoxycortisol as substrate and cortisol measured as product.

rhCYP17A1 = target: T2, rhCYP17A1 (Homo sapiens, UniProt P05093); assay: Inhibition of CYP17A1, progesterone to 17-α-hydroxyprogesterone, mass spectrometry; type: biochemical; conditions: rhCYP17A1, 150 nM progesterone, 15 minutes at 37° C.; read-out: CYP17A1 IC50
T2 construct: purchased Cypex
T2 sequence (P05093 1-508): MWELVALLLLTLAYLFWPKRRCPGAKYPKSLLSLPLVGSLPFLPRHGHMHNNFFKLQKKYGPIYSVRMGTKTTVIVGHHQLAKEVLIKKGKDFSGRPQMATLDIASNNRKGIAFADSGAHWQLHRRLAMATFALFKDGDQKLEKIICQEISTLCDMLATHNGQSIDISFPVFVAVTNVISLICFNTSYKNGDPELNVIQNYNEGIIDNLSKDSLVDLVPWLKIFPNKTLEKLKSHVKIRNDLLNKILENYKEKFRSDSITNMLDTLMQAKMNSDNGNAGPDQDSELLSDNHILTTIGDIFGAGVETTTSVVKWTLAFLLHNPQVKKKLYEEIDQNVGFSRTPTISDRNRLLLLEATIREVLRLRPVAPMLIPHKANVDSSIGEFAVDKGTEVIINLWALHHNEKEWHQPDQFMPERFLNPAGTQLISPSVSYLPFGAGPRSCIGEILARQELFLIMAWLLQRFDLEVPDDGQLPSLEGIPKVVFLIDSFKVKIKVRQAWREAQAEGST
Protocol: Compounds of the invention may also be evaluated for inhibition of CYP17A1 via the following assay:
Reactions are started by the addition of NADPH to 1 mM and allowed to proceed for 15 minutes at 37° C. Reactions are terminated by the addition of 40 μL of MeCN containing an internal standard for mass spectrometry. The plates are centrifuged at 3000 rpm for 5 min and the reaction product 17-α-hydroxyprogesterone is quantified by mass spectrometry. To determine the assay blank value (0% activity), NADPH is omitted from some reactions.
(§1) Dose dependent inhibition is quantified by the inclusion of compound at various concentrations. Maximum activity (100%) is defined by reactions containing NADPH, but without compound.

[2] = target: T3, aldosterone synthase (CYP11B2) (Macaca fascicularis, UniProt A0A2K5UPL9); assay: Inhibition of aldosterone synthase, cynomolgus adrenal mitochondria, aldosterone quantified by mass spectrometry; type: biochemical, cynomolgus monkey; conditions: 2 μM corticosterone, 90 minutes at 37° C.
T3 construct: employ cynomolgus adrenal gland mitochondria as the source of aldosterone synthase (CYP11B2); from tissue; host or cells: cynomolgus monkey adrenal gland mitochondria
T3 sequence (A0A2K5UPL9 1-503): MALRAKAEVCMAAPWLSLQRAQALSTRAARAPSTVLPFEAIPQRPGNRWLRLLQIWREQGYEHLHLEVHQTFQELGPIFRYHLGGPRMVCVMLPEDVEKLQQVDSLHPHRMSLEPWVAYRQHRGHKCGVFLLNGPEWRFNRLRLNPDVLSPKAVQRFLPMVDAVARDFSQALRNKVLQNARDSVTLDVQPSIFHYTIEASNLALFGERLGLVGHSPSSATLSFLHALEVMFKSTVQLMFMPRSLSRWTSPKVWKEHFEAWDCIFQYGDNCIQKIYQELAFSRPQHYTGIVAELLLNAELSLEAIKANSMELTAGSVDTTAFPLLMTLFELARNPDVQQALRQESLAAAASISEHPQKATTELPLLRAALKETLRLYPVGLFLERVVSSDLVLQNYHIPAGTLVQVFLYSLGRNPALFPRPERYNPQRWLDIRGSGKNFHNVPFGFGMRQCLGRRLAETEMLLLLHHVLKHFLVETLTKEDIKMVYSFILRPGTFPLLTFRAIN
Protocol: The aldosterone synthase and cortisol synthase inhibition assays employ cynomolgus adrenal gland mitochondria as the source of aldosterone synthase (CYP11B2) and cortisol synthase (CYP11B1). […] One unit of CYP11B2 and CYP11B1 activity in these preparations is defined as the amount of enzyme that generates 1 pmol of product in one hour under the conditions described.
The compounds of the invention may be evaluated for aldosterone synthase inhibition by the following assay:
Assays are performed in 96-well format in a final volume of 60 microL/well, containing 100 mM potassium phosphate, pH 7.4, 1% (v/v) DMSO, and additionally, 2 μM of corticosterone and 50 units of CYP11B2 activity. Reactions are started by the addition of NADPH to 1 mM and allowed to proceed for 90 minutes at 37° C. Reactions are terminated by the addition of 60 μL of MeCN containing an internal standard for mass spectrometry. One hundred microliters are then transferred to a glass filter plate and centrifuged at 570×g for 5 minutes and the filtrate is collected. Reaction product aldosterone is quantified by mass spectrometry. To determine the assay blank value (0% activity), NADPH is omitted from some reactions.
as §1

[3] = cynomolgus adrenal mitochondria, read-out: Cortisol Inhibition IC50
[4] = Cortisol Inhibition IC50, cynomolgus adrenal mitochondria

## CC1(C)Cc2ncn(-c3ccc(F)c(F)c3)c2C(=O)O1 [Compound 2, 3-(3,4-difluorophenyl)-6,6-dimethyl-3H,4H,6H,7H-pyrano[3,4-d]imidazol-4-one]
CYP19A1
  IC50: > 20 µM
[1]; [3]
  IC50: 3.4 µM
rhCYP17A1
  IC50: > 20 µM
[2]
  IC50: 0.091 µM

## CC1(C)Cc2ncn(-c3ccc(C#N)cc3)c2C(=O)O1 [Compound 3, 4-{6,6-dimethyl-4-oxo-3H,4H,6H,7H-pyrano[3,4-d]imidazol-3-yl}benzonitrile]
CYP19A1
  IC50: > 20 µM
[1]; [3]
  IC50: 8.7 µM
rhCYP17A1
  IC50: > 20 µM
[2]
  IC50: 0.035 µM

## CN1C(=O)CCc2cc(-n3cnc4c3C(=O)OC(C)(C)C4)ccc21 [Compound 5, 6-{6,6-dimethyl-4-oxo-3H,4H,6H,7H-pyrano[3,4-d]imidazol-3-yl}-1-methyl-1,2,3,4-tetrahydroquinolin-2-one]
CYP19A1
  IC50: > 20 µM
[1]; [3]
  IC50: 40 µM
rhCYP17A1
  IC50: > 20 µM
[2]
  IC50: 0.11 µM

## CC1(C)Cc2ncn(-c3ccc(C#N)c(Cl)c3)c2C(=O)O1 [Compound 6, 2-chloro-4-{6,6-dimethyl-4-oxo-3H,4H,6H,7H-pyrano[3,4-d]imidazol-3-yl}benzonitrile]
CYP19A1
  IC50: > 20 µM
[1]; [4]
  IC50: 2.5 µM
rhCYP17A1
  IC50: > 20 µM
[2]
  IC50: 0.0053 µM

## CC1(C)Cc2ncn(-c3cccc(Cl)c3F)c2C(=O)O1 [Compound 8, 3-(3-chloro-2-fluorophenyl)-6,6-dimethyl-3H,4H,6H,7H-pyrano[3,4-d]imidazol-4-one]
CYP19A1
  IC50: > 20 µM
[1]; [3]
  IC50: 5.3 µM
rhCYP17A1
  IC50: > 20 µM
[2]
  IC50: 0.035 µM

## CC1(C)Cc2ncn(-c3ccc(Cl)cc3)c2C(=O)O1 [Compound 9, 3-(4-chlorophenyl)-6,6-dimethyl-3H,4H,6H,7H-pyrano[3,4-d]imidazol-4-one]
CYP19A1
  IC50: > 20 µM
[1]; [3]
  IC50: 2.4 µM
rhCYP17A1
  IC50: > 20 µM
[2]
  IC50: 0.032 µM

## CC1(C)Cc2ncn(-c3ccc(C#N)c(F)c3)c2C(=O)O1 [Compound 10, 4-{6,6-dimethyl-4-oxo-3H,4H,6H,7H-pyrano[3,4-d]imidazol-3-yl}-2-fluorobenzonitrile]
CYP19A1
  IC50: > 20 µM
[1]; [4]
  IC50: 4.2 µM
rhCYP17A1
  IC50: > 20 µM
[2]
  IC50: 0.043 µM

## Cc1cc(-n2cnc3c2C(=O)OC(C)(C)C3)ccc1C#N [Compound 11, 4-{6,6-dimethyl-4-oxo-3H,4H,6H,7H-pyrano[3,4-d]imidazol-3-yl}-2-methylbenzonitrile]
CYP19A1
  IC50: > 20 µM
[1]; [3]
  IC50: 0.59 µM
rhCYP17A1
  IC50: > 20 µM
[2]
  IC50: 0.0049 µM

## Cc1cc(C#N)ccc1-n1cnc2c1C(=O)OC(C)(C)C2 [Compound 13, 4-{6,6-dimethyl-4-oxo-3H,4H,6H,7H-pyrano[3,4-d]imidazol-3-yl}-3-methylbenzonitrile]
CYP19A1
  IC50: > 20 µM
[1]; [4]
  IC50: 2.2 µM
rhCYP17A1
  IC50: > 20 µM
[2]
  IC50: 0.0063 µM

## CC1(C)Cc2ncn(-c3ccc(C#N)cc3Cl)c2C(=O)O1 [Compound 18, 3-chloro-4-{6,6-dimethyl-4-oxo-3H,4H,6H,7H-pyrano[3,4-d]imidazol-3-yl}benzonitrile]
CYP19A1
  IC50: > 20 µM
[1]; [3]
  IC50: 4.1 µM
rhCYP17A1
  IC50: > 20 µM
[2]
  IC50: 0.017 µM

## CC1(C)Cc2ncn(-c3ccc(C#N)cc3F)c2C(=O)O1 [Compound 19, 4-{6,6-dimethyl-4-oxo-3H,4H,6H,7H-pyrano[3,4-d]imidazol-3-yl}-3-fluorobenzonitrile]
CYP19A1
  IC50: > 20 µM
[1]; [3]
  IC50: 7.1 µM
rhCYP17A1
  IC50: > 20 µM
[2]
  IC50: 0.046 µM

## CC1(C)Cc2ncn([C@H]3CC[C@H](C#N)CC3)c2C(=O)O1 [Compound 28, trans-4-(6,6-Dimethyl-4-oxo-6,7-dihydro-4H-pyrano[3,4-d]imidazol-3-yl)-cyclohexanecarbonitrile]
CYP19A1
  IC50: > 20 µM
[1]; [3]
  IC50: 16 µM
rhCYP17A1
  IC50: > 20 µM
[2]
  IC50: 0.075 µM

## CC1(C=O)Cc2ncn(-c3ccc(C#N)c(Cl)c3)c2C(=O)O1 (centres unmarked) [Compound 43, 2-Chloro-4-(6-formyl-6-methyl-4-oxo-6,7-dihydro-4H-pyrano[3,4-d]imidazol-3-yl)-benzonitrile]
CYP19A1
  IC50: > 20 µM
[1]; [4]
  IC50: > 30 µM
rhCYP17A1
  IC50: > 20 µM
[2]
  IC50: 0.54 µM

## CC1(C(=O)O)Cc2ncn(-c3ccc(C#N)c(Cl)c3)c2C(=O)O1 (centres unmarked) [Compound 44, 3-(3-Chloro-4-cyano-phenyl)-6-methyl-4-oxo-3,4,6,7-tetrahydro-pyrano[3,4-d]imidazole-6-carboxylic acid]
CYP19A1
  IC50: > 20 µM
[1]; [4]
  IC50: > 30 µM
rhCYP17A1
  IC50: > 20 µM
[2]
  IC50: 0.67 µM
